1 molecule from PubChem BioAssay (NCI) can be followed below.

Test systems include SF-268 CNS; CAKI-1 renal; KM12 colon; T-47D breast; UO-31 renal; UACC-257 melanoma; HL-60(TB) leukemia; MDA-MB-435; SNB-19 CNS; MCF7 breast.
Common to all, as to experiment: DTP human tumour cell line panel, 48 h

SMILES strings stand for the structures.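 Interpolation was linear, between the two tested concentrations surrounding the appropriate level; five concentrations were tested over 48 hours in 96-well plates. GI50: concentration for 50% inhibition of growth. Definition used: TGI = concentration required for complete inhibition of growth.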

As to `COc1cc(NN=C(c2ccc(O)cc2)c2ccc(O)cc2)c([N+](=O)[O-])cc1[N+](=O)[O-]`, the GI50 in the assay with SF-268 CNS was 6.64 µM; with CAKI-1 renal, 13.8 µM; in the assay on KM12 colon it was 4.86 µM; with T-47D breast, 1.62 µM; in the assay with UO-31 renal, 10.4 µM; with UACC-257 melanoma, 15.5 µM. The GI50 in the assay with HL-60(TB) leukemia was 22 µM; with MDA-MB-435, 10.4 µM; in the assay on SNB-19 CNS it was 10.7 µM; in the assay on MCF7 breast, 5.71 µM. Also, the TGI in the assay with SF-268 CNS is 25.5 µM; in the assay with CAKI-1 renal it was 26.7 µM; in the assay on KM12 colon it was 25.7 µM; in the assay with T-47D breast, 19.2 µM; in the assay with UO-31 renal, 23.9 µM; in the assay on UACC-257 melanoma, 29.3 µM. For the same molecule, the TGI was above 100 µM with HL-60(TB) leukemia, 22.6 µM in the assay with MDA-MB-435, 23.3 µM in the assay with SNB-19 CNS and 21.9 µM in the assay on MCF7 breast.

A word on the GI50: it is the concentration that inhibits growth by half. The term TGI denotes the concentration at which net growth stops. The low end stands for more potent growth arrest, the high end for less potent growth arrest.
